Results as given in US10703764B2, “Benzopiperazine compositions as BET bromodomain inhibitors” (FORMA Therapeutics, Inc., priority 2013, dated 2020).

How the values were obtained:
BRD4 BD1 = target: T1, BRD4 BD1 (Homo sapiens, UniProt O60885); test: AlphaScreen binding assay, BRD4 Bromodomain 1
T1 construct: made in house
Method in brief: (§1)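 Compound dilution series were mixed with His-tagged BRD4 bromodomain and biotinylated tetra-acetylated H4 (1-21) peptide at pH 7.3 (BD1 and peptide at 50 nM, BD2 and peptide at 100 nM). Donor and acceptor beads were then added, and plates were equilibrated at least 1 h before reading. IC50 values were fitted with a four-parameter logistic model.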

MV4-11 cells = test: Oncology cell growth assay (3-day proliferation, CellTiter-Glo); format: cell-based; conditions: Homo sapiens, MV4-11, 72 h, AML cell line MV4-11, 72 hours, compounds grouped by IC50 range, read-out: MV4-11 IC50 (inhibition of proliferation, gIC50)
Method in brief: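 Luminescence from CellTiter-Glo served as the growth read-out after MV4-11 cells (3000/well) were cultured with compound for 72 hours. Final concentrations spanned 10 to 0.0045 μM in 3-fold steps. gIC50 values were derived by four-parameter logistic fitting relative to DMSO and cell-free controls.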

BRD4 BD2 = target: T2, BRD4 BD2 (Homo sapiens, UniProt O60885); test: AlphaScreen binding assay, BRD4 Bromodomain 2
T2 construct: made in house
Method in brief: as §1

Compound	IC50 (BRD4 BD1) [nM]	IC50 (MV4-11 cells) [nM]	IC50 (BRD4 BD2) [nM]
COC(=O)N1c2ccc(-c3cnn(C4COC4)c3)cc2N(C(=O)OC(C)C)C[C@@H]1C [Example I-326]	100 to 1000	> 500	50 to 500
CC(=O)N1c2ccc(-c3cnn(CC(C)(C)O)c3)cc2N(C(=O)OC(C)C)C[C@@H]1C [Example I-327]	100 to 1000	100 to 500	50 to 500
CC(C)OC(=O)N1C[C@H](C)N(C(=O)C2CC2)c2ccc(-c3cnn(CC(C)(C)O)c3)cc21 [Example I-328]	100 to 1000	100 to 500	50 to 500
COC(=O)N1c2ccc(-c3cnn(CC(C)(C)O)c3)cc2N(C(=O)OC(C)C)C[C@@H]1C [Example I-329]	100 to 1000	100 to 500	50 to 500
CC(=O)N1c2ccc(-c3cnn(C(C)(C)C)c3)cc2N(C(=O)OC(C)C)C[C@@H]1C [Example I-330]	100 to 1000	100 to 500	50 to 500
CC(C)OC(=O)N1C[C@H](C)N(C(=O)C2CC2)c2ccc(-c3cnn(C(C)(C)C)c3)cc21 [Example I-331]	100 to 1000	> 500	> 500
COC(=O)N1c2ccc(-c3cnn(C(C)(C)C)c3)cc2N(C(=O)OC(C)C)C[C@@H]1C [Example I-332]	100 to 1000	> 500	> 500
CC(=O)N1c2ccc(-c3cnn(C(F)F)c3)cc2N(C(=O)OC(C)C)C[C@@H]1C [Example I-336]	100 to 1000	> 500	50 to 500
CC(=O)N1c2ccc(-c3c[nH]nc3C)cc2N(C(=O)OC(C)C)CC1C (stereo not drawn) [Example I-337]	100 to 1000	> 500	> 500
CC(=O)N1c2ccc(-c3cn(C)nc3C)cc2N(C(=O)OC(C)C)C[C@@H]1C [Example I-338]	100 to 1000	> 500	50 to 500
CC(=O)N1c2ccc(-c3ccc(NS(C)(=O)=O)cc3)cc2N(C(=O)OC(C)C)C[C@@H]1C [Example I-345]	100 to 1000	100 to 500	50 to 500
CC(=O)N1c2ccc(-c3ccc(N(C)S(C)(=O)=O)cc3)cc2N(C(=O)OC(C)C)C[C@@H]1C [Example I-346]	100 to 1000	100 to 500	50 to 500
CC(=O)N1c2ccc(-c3ccc4c(c3)CCN4S(C)(=O)=O)cc2N(C(=O)OC(C)C)C[C@@H]1C [Example I-348]	100 to 1000	100 to 500	< 50
CC(=O)N1c2ccc(-c3ccc(NS(C)(=O)=O)cc3)cc2N(C(=O)C2CC2)C[C@@H]1C [Example I-349]	100 to 1000	100 to 500	50 to 500
CC(=O)N1c2ccc(-c3ccc(N(C)S(C)(=O)=O)cc3)cc2N(C(=O)C2CC2)C[C@@H]1C [Example I-350]	1000 to 10000	100 to 500	50 to 500
CC(=O)N1c2ccc(-c3ccc(NS(=O)(=O)C4CC4)cc3)cc2N(C(=O)C2CC2)C[C@@H]1C [Example I-351]	100 to 1000	100 to 500	50 to 500

Compound	IC50 (BRD4 BD1) [nM]	IC50 (MV4-11 cells) [nM]	IC50 (BRD4 BD2) [nM]
CC(=O)N1c2ccc(-c3cnn(C4CCNCC4)c3)cc2N(C(=O)OC(C)C)C[C@@H]1C [Example I-353]	100 to 1000	100 to 500	50 to 500
CC(C)OC(=O)N1C[C@H](C)N(C(=O)C2CC2)c2ccc(-c3cnn(C4CCNCC4)c3)cc21 [Example I-354]	100 to 1000	100 to 500	50 to 500
COC(=O)N1c2ccc(-c3cnn(C4CCNCC4)c3)cc2N(C(=O)OC(C)C)C[C@@H]1C [Example I-355]	100 to 1000	100 to 500	50 to 500
CC(=O)N1c2ccc(-c3cnn(C4CNC4)c3)cc2N(C(=O)OC(C)C)C[C@@H]1C [Example I-356]	100 to 1000	100 to 500	< 50
CC(=O)N1c2ccc(-c3cnn(C4CCNCC4)c3)cc2N(C(=O)C2CC2)C[C@@H]1C [Example I-359]	1000 to 10000	100 to 500	< 50
C[C@H]1CN(C(=O)c2ccco2)c2cc(-c3ccc(S(C)(=O)=O)cc3)ccc2N1C(=O)C1CC1 [Example I-364]	100 to 1000	100 to 500	< 50
CCC(=O)N1c2ccc(-c3ccc(S(C)(=O)=O)cc3)cc2N(C(=O)c2ccco2)C[C@@H]1C [Example I-365]	1000 to 10000	> 500	< 50
C[C@H]1CN(C(=O)C2CC2)c2cc(-c3cnn(C4CC4)c3)ccc2N1C(=O)C1CC1 [Example I-377]	100 to 1000	100 to 500	50 to 500
CC(C)OC(=O)N1C[C@H](C)N(C(=O)C2CC2)c2ccc(-c3cnn(C4CC4)c3)cc21 [Example I-378]	100 to 1000	100 to 500	50 to 500
CCOC(=O)N1C[C@H](C)N(C(=O)C2CC2)c2ccc(-c3cnn(C4CC4)c3)cc21 [Example I-379]	100 to 1000	100 to 500	50 to 500
CC(=O)N1c2ccc(-c3ccc4nccn4c3)cc2N(C(=O)c2ccco2)C[C@@H]1C [Example I-382]	1000 to 10000	100 to 500	> 500
CC(=O)N1c2ccc(-c3ccc4nccn4n3)cc2N(C(=O)c2ccco2)C[C@@H]1C [Example I-398]	100 to 1000	100 to 500	50 to 500
CC(=O)N1c2ccc(-c3cn(C)cn3)cc2N(C(=O)c2ccco2)C[C@@H]1C [Example I-401]	1000 to 10000	100 to 500	< 50
CC(=O)N1c2ccc(-c3ccc(S(C)(=O)=O)cn3)cc2N(C(=O)c2ccco2)C[C@@H]1C [Example I-407]	1000 to 10000	> 500	< 50
CC(=O)N1c2ccc(-c3cnn(Cc4ccccc4)c3)cc2N(C(=O)c2ccco2)C[C@@H]1C [Example I-409]	100 to 1000	< 100	< 50

The remaining lines, values ahead:

IC50 (BRD4 BD1) [nM]	IC50 (MV4-11 cells) [nM]	IC50 (BRD4 BD2) [nM]	Compound
100 to 1000	> 500	50 to 500	CC(C)OC(=O)N1C[C@H](C)N(C(=O)C2CC2)c2ccc(-c3cnn(CCS(C)(=O)=O)c3)cc21 [Example I-309]
100 to 1000	> 500	50 to 500	CC(C)OC(=O)N1C[C@H](C)N(C(=O)C2CC2)c2ccc(-c3cnn(CC(N)=O)c3)cc21 [Example I-310]
100 to 1000	100 to 500	50 to 500	CC(C)OC(=O)N1C[C@H](C)N(C(=O)C2CC2)c2ccc(-c3cnn(CCN4CCOCC4)c3)cc21 [Example I-312]
100 to 1000	100 to 500	50 to 500	CC(C)OC(=O)N1C[C@H](C)N(C(=O)C2CC2)c2ccc(-c3cnn(C4CCOCC4)c3)cc21 [Example I-313]
100 to 1000	100 to 500	50 to 500	COCCn1cc(-c2ccc3c(c2)N(C(=O)OC(C)C)C[C@H](C)N3C(=O)C2CC2)cn1 [Example I-314]
100 to 1000	100 to 500	50 to 500	CC(C)OC(=O)N1C[C@H](C)N(C(=O)C2CC2)c2ccc(-c3cnn(CCO)c3)cc21 [Example I-315]
100 to 1000	100 to 500	50 to 500	CC(C)OC(=O)N1C[C@H](C)N(C(=O)C2CC2)c2ccc(-c3cnn(CC4CC4)c3)cc21 [Example I-316]
100 to 1000	100 to 500	50 to 500	CC(C)OC(=O)N1C[C@H](C)N(C(=O)C2CC2)c2ccc(-c3cnn(C4COC4)c3)cc21 [Example I-317]
100 to 1000	> 500	50 to 500	COC(=O)N1c2ccc(-c3cnn(CCS(C)(=O)=O)c3)cc2N(C(=O)OC(C)C)C[C@@H]1C [Example I-318]
100 to 1000	> 500	50 to 500	COC(=O)N1c2ccc(-c3cnn(CC(N)=O)c3)cc2N(C(=O)OC(C)C)C[C@@H]1C [Example I-319]
100 to 1000	> 500	50 to 500	COC(=O)N1c2ccc(-c3cnn(CC(=O)N(C)C)c3)cc2N(C(=O)OC(C)C)C[C@@H]1C [Example I-320]
100 to 1000	100 to 500	50 to 500	COC(=O)N1c2ccc(-c3cnn(CCN4CCOCC4)c3)cc2N(C(=O)OC(C)C)C[C@@H]1C [Example I-321]
100 to 1000	100 to 500	50 to 500	COC(=O)N1c2ccc(-c3cnn(C4CCOCC4)c3)cc2N(C(=O)OC(C)C)C[C@@H]1C [Example I-322]
100 to 1000	100 to 500	50 to 500	COCCn1cc(-c2ccc3c(c2)N(C(=O)OC(C)C)C[C@H](C)N3C(=O)OC)cn1 [Example I-323]
100 to 1000	100 to 500	50 to 500	COC(=O)N1c2ccc(-c3cnn(CCO)c3)cc2N(C(=O)OC(C)C)C[C@@H]1C [Example I-324]
100 to 1000	> 500	50 to 500	COC(=O)N1c2ccc(-c3cnn(CC4CC4)c3)cc2N(C(=O)OC(C)C)C[C@@H]1C [Example I-325]
< 100	< 100	< 50	CC(=O)N1c2ccc(-c3ccc(NS(=O)(=O)C4CC4)cc3)cc2N(C(=O)OC(C)C)C[C@@H]1C [Example I-347]
< 100	< 100	< 50	CC(=O)N1c2ccc(-c3ccc4c(c3)CCN4S(C)(=O)=O)cc2N(C(=O)C2CC2)C[C@@H]1C [Example I-352]
< 100	100 to 500	< 50	CC(=O)N1c2ccc(-c3cnn(C4CNC4)c3)cc2N(C(=O)C2CC2)C[C@@H]1C [Example I-360]
